Measurements taken from patent US9896434B2, “Substituted indanone compounds as GPR119 modulators for the treatment of diabetes, obesity, dyslipidemia and related disorders” (SANOFI, priority 2014, dated 2018).

Target: T1, human GPR119 (Homo sapiens, UniProt Q8TDV5)
T1 construct: expressed in transfected cells
T1 sequence (Q8TDV5 1-335): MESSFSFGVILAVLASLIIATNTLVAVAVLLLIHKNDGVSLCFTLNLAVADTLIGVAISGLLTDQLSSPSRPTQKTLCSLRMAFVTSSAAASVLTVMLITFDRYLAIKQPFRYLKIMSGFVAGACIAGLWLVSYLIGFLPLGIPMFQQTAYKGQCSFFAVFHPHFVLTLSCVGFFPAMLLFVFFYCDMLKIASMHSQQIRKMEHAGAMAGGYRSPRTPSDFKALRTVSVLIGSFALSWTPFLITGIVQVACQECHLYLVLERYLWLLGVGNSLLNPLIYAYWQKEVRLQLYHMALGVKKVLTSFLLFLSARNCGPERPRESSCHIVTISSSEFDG
Assay: Functional cellular assay measuring GPR119-mediated cAMP release (HTRF)
Format: cell-based
Details: HEK-293 cell line stably expressing recombinant human GPR119; cAMP response, 30 minutes at room temperature
Experimental: Functional Cellular Assays Measuring GPR119-Mediated cAMP Release
Compounds of the invention, which are agonists of GPR119, were characterized by functional assays measuring the cAMP response of HEK-293 cell lines stably expressing recombinant GPR119 from man, mouse or rat, or by using a hamster cell line HIT-T15 expressing GPR119 endogenously. The cAMP content was determined using a kit based on homogenous time-resolved fluorescence (HTRF) from Cisbio Corp. (cat. no. 62AM4PEC). For preparation, cells were split into T175 culture flasks and grown to near confluency in medium (DMEM/10% FCS for HEK-293 cells, and F-12K medium/10% horse serum/2.5% FCS for HIT-T15 cells, respectively). Medium was then removed and cells washed with PBS lacking calcium and magnesium ions, followed by proteinase treatment with accutase (Sigma-Aldrich, cat. no. A6964). Detached cells were washed and resuspended in assay buffer (1×HBSS; 20 mM HEPES, 0.1% BSA, 2 mM IBMX) and cellular density determined. They were then diluted to 400000 cells/mL and 25 μL-aliquots dispensed to the wells of 96-well plates. For measurement, 25 μL of test compound in assay buffer was added and incubated for 30 minutes at room temperature. After addition of HTRF reagents diluted in lysis buffer, the plates were incubated for 1 hour, followed by measuring the fluorescence ratio at 665 vs. 620 nm. Potency of the agonists was quantified by determining the concentrations that caused 50% of the maximal response/activation (EC50). See Table 4 for exemplary data obtained using the cell line expressing human GPR119.

EC50	Structure (SMILES)
14 nM	COC(=O)CC1Cc2c(F)cc(N3CC[C@@H](Oc4ccc(OCC5CC5)nc4)C3=O)cc2C1=O (stereo partly drawn) [Example 1-04, {6-[(R)-3-(6-cyclopropylmethoxy-pyridin-3-yloxy)-2-oxo-pyrrolidin-1-yl]-4-fluoro-1-oxo-indan-2-yl}-acetic acid methyl ester]
29 nM	COC(=O)CC1Cc2ccc(N3CC[C@@H](Oc4ccc(OCC5CC5)nc4)C3=O)cc2C1=O (stereo partly drawn) [Example 1-12, methyl 2-[6-[(3R)-3-[[6-(cyclopropylmethoxy)-3-pyridyl]oxy]-2-oxo-pyrrolidin-1-yl]-1-oxo-indan-2-yl]acetate]
233 nM	O=C1c2cc(N3CC[C@@H](Oc4ccc(OCC5CC5)nc4)C3=O)cc(F)c2CC1CCO (stereo partly drawn) [Example 1-05, (3R)-3-[[6-(cyclopropylmethoxy)-3-pyridyl]oxy]-1-[7-fluoro-2-(2-hydroxyethyl)-3-oxo-indan-5-yl]pyrrolidin-2-one]

The remaining lines, values behind:

Structure (SMILES)	EC50
NC(=O)CC1Cc2c(F)cc(N3CC[C@@H](Oc4ccc(OCC5CC5)nc4)C3=O)cc2C1=O (stereo partly drawn) [Example 3-05, 2-[6-[(3R)-3-[[6-(cyclopropylmethoxy)-3-pyridyl]oxy]-2-oxo-pyrrolidin-1-yl]-4-fluoro-1-oxo-indan-2-yl]acetamide]	78 nM
O=C(O)C[C@@H]1CC(=O)c2cc(N3CC[C@@H](Oc4ccc(OCC5CC5)nc4)C3=O)ccc21 [Example 2-05, 2-[(1S)-5-[(3R)-3-[[6-(cyclopropylmethoxy)-3-pyridyl]oxy]-2-oxo-pyrrolidin-1-yl]-3-oxo-indan-1-yl]acetic acid]	1990 nM
COC(=O)CC1CC(=O)c2cc(N3CC[C@@H](Oc4ccc(OC5CC5)nc4)C3=O)ccc21 (stereo partly drawn) [Example 1-13, methyl 2-[5-[(3R)-3-[[6-(cyclopropoxy)-3-pyridyl]oxy]-2-oxo-pyrrolidin-1-yl]-3-oxo-indan-1-yl]acetate]	98 nM
COC(=O)CC1CC(=O)c2cc(N3CC[C@@H](Oc4ccc(OCC5CC5)nc4)C3=O)ccc21 (stereo partly drawn) [Example 1-06, methyl 2-[5-[(3R)-3-[[6-(cyclopropylmethoxy)-3-pyridyl]oxy]-2-oxo-pyrrolidin-1-yl]-3-oxo-indan-1-yl]acetate]	19 nM
